From patent publication US9770462B2, “Method of treating ovarian, tubal and peritoneal cancer” (NATIONAL CHENG KUNG UNIVERSITY, priority 2015, dated 2017)

Key:
[1] = test system: cDDP^R cell lines (2008-cp, A172-cp and SR2) and cDDP^S cell lines (2008, A172 and SCLC); test: Sensitization to platinum drugs in the absence or presence of copper chelator; assay type: cell-based, human; conditions: copper chelator treated cDDP^R cells with enhanced hCtr1 expression
Protocol: Furthermore, ^64Cu uptake and platinum (Pt) uptake, and sensitization to cisplatin and carboplatin in three pairs of cDDP^R cell lines (2008-cp, A172-cp and SR2) and cDDP^S cell lines (2008, A172 and SCLC) in the absence or presence of copper chelator (5 μmol/L of TM, 100 μmol/L of trientine or 100 μmol/L of D-pen) were evaluated.

ovarian cancer cells = test: Cisplatin cytotoxicity (IC50) in the presence or absence of copper histidine; assay type: cell-based; conditions: copper ions 3000 μM, 24 hours
Protocol: The cytotoxicity of shControl cells (shControl), IMP3 knockdown cells (shIMP3-268, shIMP3-596) and Lin28B knockdown cells (shLin28B-860, shLin28B-508) in response to cisplatin was determined using the WST-1 (TaKaRa) assay. In brief, 3×10^4 ovarian cancer cells/well were grown in 96-well plates overnight and treated with cisplatin at various concentrations in the presence or absence of copper ions (3000 μM) (Copper Histidine) for 24 hours. After incubation, the […] was used to determine the IC50 of cisplatin. Dose-inhibition curves and the IC50 of cisplatin were calculated for the different cell types using commercial software (SigmaPlot V10.0, Systat Software, Inc., Richmond, Calif., USA). A copper histidine solution was prepared. In brief, copper(II) chloride (0.106 g; Sigma-Aldrich) and L-histidine (0.244 g; Sigma-Aldrich) were dissolved in 90 ml of sterile 0.9% sodium chloride, titrated to a pH of […] to 7.40, and then filtered through a 0.22-μm filter before use.

SMILES	sensitivity of cells to the platinum drug [1]	IC50 of cisplatin when combined with copper histidine (ovarian cancer cells; IMP3- or Lin28B-knockdown cells, p<0.05)	IC50 of cisplatin when combined with copper histidine (ovarian cancer cells; shControl cells)
N.N.[Cl][Pt][Cl] [cisplatin]	higher increases		
N.N.O=C([O-])C1(C(=O)[O-])CCC1.[Pt+2] [carboplatin]	increased sensitivity		
O=C1[O][Pt]2([NH][C@@H]3CCCC[C@H]3[NH]2)[O]C1=O [oxaliplatin]	not		
N[C@@H](Cc1c[nH]cn1)C(=O)O.[Cu] [copper histidine]		increased	no significant (NS) effect
